This is an account of results in patent publication US20240293400A1, “NOVEL AZAINDOLE DERIVATIVES AS ANTIVIRAL AGENTS” (Centre National de la Recherche Scientifique, priority 2021, published 2024).

Assay [1] has as its system CHIKV virus, LR-OPY1 strain. Briefly: Antiviral activity against the Chikungunya virus in HeLa cells. In kind it is cell-based. As to conditions: 24 h.
Assay [2] deals with ZIKV BeH8 strain. The note with it: cited from earlier work.
The test system of assay [3] is DENV subtype 2 strain (DENV2). The experiment in a line: Antiviral activity against the dengue virus in HeLa cells. The note with it: 72 h, DENV2, 3 days. It counts as cell-based.

On to `Nc1nc(Nc2ccc3c(c2)CC[C@@H](N2CCCC2)CC3)nn1-c1cc2c(nn1)-c1ccccc1CCC2` [R428/Bemcentinib, Bemcentinib], for which the IC50 worked out at 0.239 µM in assay [1] and 0.488 µM in assay [3]. Further, in assay [2], the “concentrations of efficacy against the ZIKV virus described in the literature” value was 1 to 3 µM.

As a reminder, the IC50 is the concentration that inhibits the measured activity by half. Higher therefore signals lower potency.
